Experimental data: PubChem BioAssay AID2202554 (NIEHS Division of Translational Toxicology (DTT))
Results filed as inconclusive are left out. Activity calls are given as the source filed them. How the calls were made is not given here.

Test system: S. typhimurium/E. coli reverse mutation, colony counts
Assay: Bacterial reverse mutation test (aka Ames test) summary data
Procedure, shortened: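 S. typhimurium his⁻ strains (TA97–TA1538) and E. coli WP2 uvrA pKM101 trp⁻, dosed over a range with or without rat, hamster or mouse liver S9. Preincubated 20 min at 37° C (or plate incorporation), plated in agar, incubated usually two days. Revertant colonies counted against negative controls.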

Row | Compound | outcome
1 | CN(C)c1nc(N(C)C)nc(N(C)C)n1 | inactive; negative
2 | O=C(O)CC(C(=O)O)C(CC(=O)O)C(=O)O (stereo not given) | active; positive
3 | N#CCC#N | inactive; negative
4 | C1=CC2C3C=CC(C3)C2C1 (stereo not given) | inactive; negative
5 | CC(C)CNCC(C)C | inactive; negative
6 | CC1CC(OC(=O)c2ccccc2O)CC(C)(C)C1 (stereo not given) | inactive; negative
7 | Nc1ccccc1C(=O)O | inactive; negative
8 | CN(C)c1ccc2nc3ccc(=[N+](C)C)cc-3sc2c1 | active; positive
9 | Oc1ccc(Cl)cc1Sc1cc(Cl)ccc1O | inactive; negative
10 | CCCCC(=O)N(C)C | inactive; negative
11 | CCCCCCCCCCCCCCCCCC(=O)O | inactive; negative
12 | Cc1ccc2ncccc2c1 | active; positive
13 | Oc1cc(Cl)c(Cl)c(Cl)c1 | inactive; negative
14 | C[N+](=O)[O-] | inactive; negative
15 | Cc1ncc[nH]1 | inactive; negative
16 | CCN(N=O)C(N)=O | active; positive
17 | O=C(O)CBr | active; positive
18 | OCC(Br)=C(Br)CO | active; positive
19 | CCCCC(CC)COC(=O)CCCCC(=O)O (stereo not given) | inactive; negative
20 | CCOC(=O)CBr | active; positive
21 | CC1=C(/C=C/C(C)=C/C=C/C(C)=C/C=O)C(C)(C)CCC1 | active; positive
22 | CC(C)[C@@H]1CC[C@@H](C)C[C@@H]1O | inactive; negative
23 | COc1ccc2nc(N)sc2c1 | active; positive

Row | Compound | outcome
24 | CCCCC(CC)COC(=O)C(C#N)=C(c1ccccc1)c1ccccc1 (stereo not given) | inactive; negative
25 | CCCCN(CCO)CCCC | inactive; negative
26 | C=CCOC(=O)C=C | inactive; negative
27 | O=C(O)C(Cl)Br (stereo not given) | active; positive
28 | NC(=O)NO | inactive; negative
29 | Cc1c(N)cccc1N | active; positive
30 | NCCc1ccc(O)c(O)c1 | active; weakly positive
31 | CC(=O)Nc1ccc(C(=O)O)cc1 | inactive; negative
32 | Clc1ccccn1 | active; positive
33 | BrC/C=C/CBr | active; positive
34 | CC12CCC(C1)C(C)(C)C2=O (stereo not given) | inactive; negative
35 | COCC1CO1 (stereo not given) | active; positive
36 | Nc1ccc(Cl)cc1Cl | active; weakly positive
37 | C=CC=O | active; weakly positive
38 | CCCCCCc1ccc(O)cc1O | inactive; negative
39 | O=C(OCC1CO1)C1CCCCC1C(=O)OCC1CO1 (stereo not given) | active; positive
40 | Cc1ccc(N)c([N+](=O)[O-])c1 | active; positive
41 | O=C1NC(=O)c2cc([N+](=O)[O-])ccc21 | active; positive
42 | COC(=O)[C@H]1[C@H]2C[C@@H]3c4[nH]c5cc(OC)ccc5c4CCN3C[C@H]2C[C@@H](OC(=O)c2cc(OC)c(OC)c(OC)c2)[C@@H]1OC | inactive; negative
43 | c1ccc2c(c1)ccc1ncccc12 | active; positive
44 | CC(Cl)Cl | inactive; negative
45 | Nc1cccc(Cl)c1 | inactive; negative
46 | CCNc1ccccc1 | inactive; negative

Row | Compound | outcome
47 | CC(=O)OCCC(C)C | inactive; negative
48 | O=Cc1ccccc1 | inactive; negative
49 | CN(C)CCCN | inactive; negative
50 | CC1(C)CC(N=C=O)CC(C)(CN=C=O)C1 (stereo not given) | inactive; negative
51 | O=C1CCCO1 | inactive; negative
52 | C=CC(=O)OCC(C)C | inactive; negative
53 | O=C(Nc1ccccc1)c1cc2ccccc2c(N=Nc2cc(Cl)ccc2Cl)c1O | active; weakly positive
54 | CC(=O)OC(C)=O | inactive; negative
55 | CCCCCCOC(=O)c1ccccc1C(=O)OCCCCCC | inactive; negative
56 | O[C@@H]([C@H](O)[C@H](O)CBr)[C@H](O)CBr | active; positive
57 | Clc1cc(Cl)c(Cl)c(Cl)c1Cl | inactive; negative
58 | COc1cc(-c2ccc(N=C=O)c(OC)c2)ccc1N=C=O | active; positive
59 | COC(=O)Nc1nc2ccccc2[nH]1 | active; positive
60 | CC(C)CCON=O | active; positive
61 | CC=C(C)C#N | inactive; negative
62 | CCCCCCCCOc1ccc(C(=O)O)cc1 | inactive; negative
63 | C1CCCNCC1 | inactive; negative
64 | N#Cc1c(Cl)c(Cl)c(Cl)c(C#N)c1Cl | inactive; negative
65 | CC1=CC(=O)CC(C)(C)[C@@]1(O)/C=C/C(C)=C\C(=O)O | inactive; negative
66 | O=C(O)c1cc(Cl)cc(Cl)c1 | inactive; negative
67 | CCn1cc[n+](C)c1 | inactive; negative
68 | COC(=O)C1CCC(C(=O)OC)CC1 (stereo not given) | active; positive
69 | CCCCOCCOCCSC#N | inactive; negative

Row | Compound | outcome
70 | C=CCCl | active; positive
71 | FC(F)(F)C(F)(F)I | active; positive
72 | N#CCBr | inactive; negative
73 | CN(C)C(=S)SSC(=S)N(C)C | active; positive
74 | O=C(O)c1cc(N=Nc2ccc([N+](=O)[O-])cc2)ccc1O | active; positive
75 | S=C=Nc1cccc2ccccc12 | active; positive
76 | CC1CC(=O)O1 (stereo not given) | active; positive
77 | O=C1Nc2ccc(Cl)cc2[C@@](C#CC2CC2)(C(F)(F)F)O1 | inactive; negative
78 | Cc1ccc(N)c(N)c1 | active; positive
79 | NC(N)=NC(=O)c1nc(Cl)c(N)nc1N | active; positive
80 | C=CCSSCCC | inactive; negative
81 | Cc1cccc(N)c1C | active; positive
82 | FC(F)(F)C(Cl)Br (stereo not given) | inactive; negative
83 | CC=C(Cl)Cl | inactive; negative
84 | CC(=O)OCc1ccccc1 | inactive; negative
85 | ClC(Cl)C(Cl)(Cl)Cl | inactive; negative
86 | N#CCCC(Br)(C#N)CBr (stereo not given) | inactive; negative
87 | Cc1ccnc2c1NC(=O)c1cccnc1N2C1CC1 | inactive; negative
88 | CCn1c2ccccc2c2cc(N)ccc21 | active; positive
89 | NCc1ccc(CN)cc1 | inactive; negative
90 | CN1CCC(CN2c3ccccc3Sc3ccccc32)C1 (stereo not given) | inactive; negative
91 | OC(c1ccc(Cl)cc1)(c1ccc(Cl)cc1)C(Cl)(Cl)Cl | inactive; negative
92 | CCCC[N+](=O)[O-] | inactive; negative

Row | Compound | outcome
93 | NC(=O)c1ncn([C@@H]2O[C@H](CO)[C@@H](O)[C@H]2O)n1 | inactive; negative
94 | C=Cc1ccccc1 | inactive; negative
95 | C=CCBr | active; positive
96 | C1CCC2CCCCC2C1 (stereo not given) | inactive; negative
97 | CC(COc1ccccc1)N(CCCl)Cc1ccccc1 (stereo not given) | active; positive
98 | C=CCOC(=O)CCCCCCCC | inactive; negative
99 | COC(=O)/C=C/C(C)=C\C=C\C(C)=C\C=C\C=C(C)\C=C\C=C(C)\C=C\C(=O)O | active; positive
100 | Cc1ccc(NC(N)=O)cc1 | inactive; negative
101 | S=[Se] | active; positive
102 | CC1OC1C (stereo not given) | active; positive
103 | C=CC(=O)NC(C)(C)CC(C)=O | inactive; negative
104 | CCCCCCC=O | inactive; negative
105 | O=C1CN(N=Cc2ccc([N+](=O)[O-])o2)C(=O)N1 | active; positive
106 | C[Si](C)(C)Cl | active; weakly positive
107 | O=c1cc(-c2ccccc2)oc2ccc3ccccc3c12 | inactive; negative
108 | CC(C)(C)CC(C)(C)c1ccc(OCCOCC[N+](C)(C)Cc2ccccc2)cc1 | inactive; negative
109 | BrCC(Br)C1CCC(Br)C(Br)C1 (stereo not given) | inactive; negative
110 | CCNC(=O)Nc1ncc([N+](=O)[O-])s1 | active; positive
111 | COc1cccc(N)c1 | active; positive
112 | CCC(Br)(CC)C(=O)NC(N)=O | inactive; negative
113 | CNCCS(=O)(=O)O | inactive; negative
114 | COP(=O)(OC)OC=C(Cl)Cl | active; positive
115 | C[n+]1cccc(C(=O)[O-])c1 | inactive; negative
